From PubChem BioAssay (NCI)
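Assay format: 96-well plates, 48-hour exposure. TGI: concentration producing complete growth inhibition.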

Assays:
Assay in all cases: NCI anticancer screen, dose series, 48 h
NCI-H522 lung = system: NCI-H522 lung
ACHN renal = system: ACHN renal
SK-MEL-2 melanoma = system: SK-MEL-2 melanoma
UO-31 renal = system: UO-31 renal
HOP-92 NSCLC = system: HOP-92 NSCLC
U251 CNS = system: U251 CNS
BT-549 breast = system: BT-549 breast
MOLT-4 leukemia = system: MOLT-4 leukemia
CAKI-1 renal = system: CAKI-1 renal
EKVX NSCLC = system: EKVX NSCLC
HL-60(TB) leukemia = system: HL-60(TB) leukemia
NCI-H23 lung = system: NCI-H23 lung
SF-268 CNS = system: SF-268 CNS
UACC-62 melanoma = system: UACC-62 melanoma
NCI-H460 lung = system: NCI-H460 lung
T-47D breast = system: T-47D breast
SK-MEL-28 melanoma = system: SK-MEL-28 melanoma
RPMI-8226 leukemia = system: RPMI-8226 leukemia
HS 578T breast = system: HS 578T breast
786-0 renal = system: 786-0 renal
KM12 colon = system: KM12 colon
SF-295 CNS = system: SF-295 CNS
MDA-MB-231 breast = system: MDA-MB-231 breast
UACC-257 melanoma = system: UACC-257 melanoma
OVCAR-4 ovarian = system: OVCAR-4 ovarian
A549 NSCLC = system: A549 NSCLC
SF-539 CNS = system: SF-539 CNS
NCI/ADR-RES ovarian = system: NCI/ADR-RES ovarian
OVCAR-5 ovarian = system: OVCAR-5 ovarian
COLO 205 colon = system: COLO 205 colon
K-562 leukemia = system: K-562 leukemia
OVCAR-3 ovarian = system: OVCAR-3 ovarian
SN12C renal = system: SN12C renal
DU-145 prostate = system: DU-145 prostate
SNB-75 CNS = system: SNB-75 CNS
CCRF-CEM leukemia = system: CCRF-CEM leukemia
MDA-MB-435 = system: MDA-MB-435
HT29 colon = system: HT29 colon
MDA-N = system: MDA-N
SK-MEL-5 melanoma = system: SK-MEL-5 melanoma
A498 renal = system: A498 renal
PC-3 prostate = system: PC-3 prostate
HCT-116 colon = system: HCT-116 colon
OVCAR-8 ovarian = system: OVCAR-8 ovarian
SR leukemia = system: SR leukemia
MCF7 breast = system: MCF7 breast
SW-620 colon = system: SW-620 colon
LOX IMVI melanoma = system: LOX IMVI melanoma
SK-OV-3 ovarian = system: SK-OV-3 ovarian
HCT-15 colon = system: HCT-15 colon
NCI-H226 lung = system: NCI-H226 lung
TK-10 renal = system: TK-10 renal
RXF 393 renal = system: RXF 393 renal
HCC-2998 colon = system: HCC-2998 colon
M14 melanoma = system: M14 melanoma
HOP-62 NSCLC = system: HOP-62 NSCLC

Measured: TGI

O=P1(N(CCCl)CCCl)Oc2ccc(Cl)cc2Sc2c(ccc(Cl)c2Cl)O1 (stereo unspecified)
21.5 µM: SK-MEL-5 melanoma
43.9 µM: RXF 393 renal
34.4 µM: HOP-92 NSCLC
67.3 µM: SNB-75 CNS
74.6 µM: HCT-116 colon
33.7 µM: NCI-H460 lung
> 100 µM: NCI-H522 lung | ACHN renal | UO-31 renal | U251 CNS | BT-549 breast | MOLT-4 leukemia | CAKI-1 renal | EKVX NSCLC | HL-60(TB) leukemia | NCI-H23 lung | SF-268 CNS | UACC-62 melanoma | T-47D breast | SK-MEL-28 melanoma | RPMI-8226 leukemia | 786-0 renal | KM12 colon | SF-295 CNS | MDA-MB-231 breast | UACC-257 melanoma | OVCAR-4 ovarian | SF-539 CNS | NCI/ADR-RES ovarian | OVCAR-5 ovarian | K-562 leukemia | OVCAR-3 ovarian | SN12C renal | DU-145 prostate | CCRF-CEM leukemia | MDA-MB-435 | HT29 colon | MDA-N | A498 renal | PC-3 prostate | OVCAR-8 ovarian | SR leukemia | MCF7 breast | SW-620 colon | LOX IMVI melanoma | SK-OV-3 ovarian | HCT-15 colon | TK-10 renal | HCC-2998 colon | M14 melanoma | HOP-62 NSCLC
23 µM: COLO 205 colon
95 µM: NCI-H226 lung
77.1 µM: A549 NSCLC
80.3 µM: SK-MEL-2 melanoma
33.6 µM: HS 578T breast
